According to patent US8541588B2, “Sulfonamide derivatives” (Pfizer Limited, priority 2009, dated 2013):
“And” between values parts separate entries of the source, which are not always exact repeats. Equal entries are not always repeated.

Biological target: T1, Nav1.7 (or SCN9A) channel; HEK cells stably transfected with hSCN9A (Homo sapiens, UniProt Q15858)
T1 construct: expressed in transfected cells
Experiment: Nav1.7 block, PatchXpress 7000 automated whole-cell voltage clamp, estimated IC50 (EIC50)
Type: cell-based
Conditions: PatchXpress platform; hSCN9A HEK cells held at V1/2 of inactivation; estimated IC50

T1 sequence (Q15858 whole entry): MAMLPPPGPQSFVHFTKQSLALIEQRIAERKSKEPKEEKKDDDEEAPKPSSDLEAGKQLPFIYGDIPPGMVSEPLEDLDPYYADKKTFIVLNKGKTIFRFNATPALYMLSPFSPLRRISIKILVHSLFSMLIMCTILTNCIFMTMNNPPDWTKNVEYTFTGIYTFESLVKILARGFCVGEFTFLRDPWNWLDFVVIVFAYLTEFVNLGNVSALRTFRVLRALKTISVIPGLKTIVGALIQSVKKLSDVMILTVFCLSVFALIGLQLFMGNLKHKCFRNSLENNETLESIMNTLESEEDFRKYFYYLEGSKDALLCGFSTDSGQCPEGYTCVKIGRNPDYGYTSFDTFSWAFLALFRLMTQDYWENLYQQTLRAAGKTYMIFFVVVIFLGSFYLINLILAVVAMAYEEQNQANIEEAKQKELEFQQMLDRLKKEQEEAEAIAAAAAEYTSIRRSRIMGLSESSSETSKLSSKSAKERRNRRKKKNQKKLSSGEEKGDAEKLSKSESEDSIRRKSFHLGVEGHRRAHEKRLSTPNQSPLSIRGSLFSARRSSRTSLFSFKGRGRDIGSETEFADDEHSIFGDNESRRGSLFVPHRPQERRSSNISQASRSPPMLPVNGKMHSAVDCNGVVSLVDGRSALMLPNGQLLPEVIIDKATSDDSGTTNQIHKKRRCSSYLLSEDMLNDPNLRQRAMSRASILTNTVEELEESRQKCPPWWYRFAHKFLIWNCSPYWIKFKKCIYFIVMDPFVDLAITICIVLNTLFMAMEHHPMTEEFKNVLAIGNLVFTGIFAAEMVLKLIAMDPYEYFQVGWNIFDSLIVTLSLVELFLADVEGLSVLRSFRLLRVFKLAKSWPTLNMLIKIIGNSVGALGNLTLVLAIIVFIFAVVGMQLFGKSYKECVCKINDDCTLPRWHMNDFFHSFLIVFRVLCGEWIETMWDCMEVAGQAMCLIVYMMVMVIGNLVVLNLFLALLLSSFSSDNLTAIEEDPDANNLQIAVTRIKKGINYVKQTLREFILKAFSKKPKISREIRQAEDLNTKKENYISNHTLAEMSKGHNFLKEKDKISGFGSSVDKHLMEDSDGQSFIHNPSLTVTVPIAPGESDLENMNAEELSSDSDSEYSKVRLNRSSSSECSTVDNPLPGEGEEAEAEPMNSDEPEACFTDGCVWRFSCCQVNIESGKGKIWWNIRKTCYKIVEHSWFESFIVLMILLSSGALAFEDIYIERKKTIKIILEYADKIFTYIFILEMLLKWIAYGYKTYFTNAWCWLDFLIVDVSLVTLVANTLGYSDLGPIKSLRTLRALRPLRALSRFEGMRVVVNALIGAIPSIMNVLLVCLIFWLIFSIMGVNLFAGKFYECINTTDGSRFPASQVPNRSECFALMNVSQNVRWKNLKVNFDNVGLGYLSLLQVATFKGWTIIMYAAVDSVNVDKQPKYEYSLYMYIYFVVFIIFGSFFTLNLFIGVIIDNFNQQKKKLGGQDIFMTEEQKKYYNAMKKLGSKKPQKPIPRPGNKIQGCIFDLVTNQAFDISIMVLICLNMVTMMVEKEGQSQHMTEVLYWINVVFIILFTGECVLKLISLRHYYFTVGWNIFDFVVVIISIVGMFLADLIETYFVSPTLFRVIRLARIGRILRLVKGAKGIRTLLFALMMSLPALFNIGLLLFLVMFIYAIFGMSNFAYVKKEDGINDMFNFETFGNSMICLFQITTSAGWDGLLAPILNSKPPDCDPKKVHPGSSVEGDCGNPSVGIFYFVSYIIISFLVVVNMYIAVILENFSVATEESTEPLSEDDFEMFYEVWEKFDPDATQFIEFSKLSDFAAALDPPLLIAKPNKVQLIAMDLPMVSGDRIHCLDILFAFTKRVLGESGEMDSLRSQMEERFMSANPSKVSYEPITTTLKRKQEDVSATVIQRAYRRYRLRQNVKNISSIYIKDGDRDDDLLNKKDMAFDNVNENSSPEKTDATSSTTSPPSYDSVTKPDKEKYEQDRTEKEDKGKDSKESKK

Structure (SMILES)	IC50
N#Cc1cc(S(=O)(=O)Nc2ncns2)ccc1Oc1cc(C2CC2)nn1-c1cc(F)ccc1F [Example 87, 3-cyano-4-{[3-cyclopropyl-1-(2,5-difluorophenyl)-1H-pyrazol-5-yl]oxy}-N-1,2,4-thiadiazol-5-ylbenzenesulfonamide]	1.6 µM
N#Cc1cc(S(=O)(=O)Nc2ncns2)ccc1Oc1cc(C(F)(F)F)nn1-c1ccccc1F [Example 88, 3-cyano-4-{[1-(2-fluorophenyl)-3-(trifluoromethyl)-1H-pyrazol-5-yl]oxy}-N-1,2,4-thiadiazol-5-ylbenzenesulfonamide]	0.27 µM
N#Cc1cc(S(=O)(=O)Nc2ncns2)ccc1Oc1cccc(F)c1-c1ccn[nH]1 [Example 89, 3-cyano-4-[3-fluoro-2-(2H-pyrazol-3-yl)-phenoxy]-N-[1,2,4]thiadiazol-5-yl-benzenesulfonamide]	0.68 µM
N#Cc1cc(S(=O)(=O)Nc2ncns2)ccc1Oc1ccc(Cl)cc1-c1ccnn1CCO [Example 90, 4-(4-chloro-2-(1-(2-hydroxyethyl)-1H-pyrazol-5-yl)phenoxy)-3-cyano-N-(1,2,4-thiadiazol-5-yl)benzenesulfonamide]	0.1 µM
Cn1nccc1-c1cc(CO)ccc1Oc1ccc(S(=O)(=O)Nc2ncns2)cc1C#N [Example 91, 3-cyano-4-(4-(hydroxymethyl)-2-(1-methyl-1H-pyrazol-5-yl)phenoxy)-N-(1,2,4-thiadiazol-5-yl)benzenesulfonamide]	1.12 µM
CCOC(=O)Cn1nc(Cc2ccc(Cl)cc2)cc1Oc1ccc(S(=O)(=O)Nc2ncns2)cc1C#N [Example 92, 3-(4-chloro-benzyl)-5-{2-cyano-4-(1,2,4-thiadiazol-5-ylsulfamoyl)-phenoxy}-pyrazol-1-yl-acetic acid ethyl ester]	1.81 µM
N#Cc1cc(S(=O)(=O)Nc2ncns2)ccc1Oc1cc(Cc2ccc(Cl)cc2)nn1CC(N)=O [Example 93, 2-[3-(4-chlorobenzyl)-5-{2-cyano-4-[(1,2,4-thiadiazol-5-ylamino)sulfonyl]phenoxy}-1H-pyrazol-1-yl]acetamide]	1.57 µM
N#Cc1cc(S(=O)(=O)Nc2ncns2)ccc1Oc1cc(Cc2ccc(Cl)cc2)nn1CCO [Example 94, 4-{[3-(4-chlorobenzyl)-1-(2-hydroxyethyl)-1H-pyrazol-5-yl]oxy}-3-cyano-N-1,2,4-thiadiazol-5-ylbenzenesulfonamide]	2.18 µM
N#Cc1cc(S(=O)(=O)Nc2ncco2)ccc1Oc1ccccc1-c1ccccc1 [Example 95, 4-(biphenyl-2-yloxy)-3-cyano-N-1,3-oxazol-2-ylbenzenesulfonamide]	>10 µM
COc1nsc(NS(=O)(=O)c2ccc(Oc3ccccc3-c3ccccc3)c(C#N)c2)n1 [Example 96, 4-(biphenyl-2-yloxy)-3-cyano-N-(3-methoxy-1,2,4-thiadiazol-5-yl)benzenesulfonamide]	12.5 µM
N#Cc1cc(S(=O)(=O)Nc2cscn2)ccc1Oc1ccccc1-c1ccccc1 [Example 97, 4-(biphenyl-2-yloxy)-3-cyano-N-1,3-thiazol-4-ylbenzenesulfonamide]	2.32 µM
N#Cc1cc(S(=O)(=O)Nc2cnsc2)ccc1Oc1ccccc1-c1ccccc1 [Example 99, 4-(biphenyl-2-yloxy)-3-cyano-N-isothiazol-4-ylbenzenesulfonamide]	>10 µM and 24.9 µM
Cc1cnc(NS(=O)(=O)c2ccc(Oc3ccccc3-c3ccccc3)c(C#N)c2)s1 [Example 100, 4-(biphenyl-2-yloxy)-3-cyano-N-(5-methyl-1,3-thiazol-2-yl)benzenesulfonamide]	3.17 µM
Cc1csc(NS(=O)(=O)c2ccc(Oc3ccccc3-c3ccccc3)c(C#N)c2)n1 [Example 101, 4-(biphenyl-2-yloxy)-3-cyano-N-(4-methyl-1,3-thiazol-2-yl)benzenesulfonamide]	1.58 µM
CCc1nsc(NS(=O)(=O)c2ccc(Oc3ccccc3-c3ccccc3)c(C#N)c2)n1 [Example 102, 4-(biphenyl-2-yloxy)-3-cyano-N-(3-ethyl-1,2,4-thiadiazol-5-yl)benzenesulfonamide]	>10 µM
Cc1nsc(NS(=O)(=O)c2ccc(Oc3ccccc3-c3ccccc3)c(C#N)c2)n1 [Example 103, 4-(biphenyl-2-yloxy)-3-cyano-N-(3-methyl-1,2,4-thiadiazol-5-yl)benzenesulfonamide]	1.3 µM
N#Cc1cc(S(=O)(=O)Nc2nncs2)ccc1Oc1ccccc1-c1ccccc1 [Example 104, 4-(biphenyl-2-yloxy)-3-cyano-N-1,3,4-thiadiazol-2-ylbenzenesulfonamide]	2.25 µM
N#Cc1cc(S(=O)(=O)Nc2cncs2)ccc1Oc1ccccc1-c1ccccc1 [Example 105, 4-(biphenyl-2-yloxy)-3-cyano-N-1,3-thiazol-5-ylbenzenesulfonamide]	2.67 µM
N#Cc1cc(S(=O)(=O)Nc2ccncn2)ccc1Oc1ccccc1-c1ccccc1 [Example 106, 4-(biphenyl-2-yloxy)-3-cyano-N-pyrimidin-4-ylbenzenesulfonamide]	4.16 µM
N#Cc1cc(S(=O)(=O)Nc2cnoc2)ccc1Oc1ccccc1-c1ccccc1 [Example 108, 4-(biphenyl-2-yloxy)-3-cyano-N-isoxazol-4-ylbenzenesulfonamide]	>10 µM

Structure (SMILES)	IC50
N#Cc1cc(S(=O)(=O)Nc2ccon2)ccc1Oc1ccccc1-c1ccccc1 [Example 110, 4-(biphenyl-2-yloxy)-3-cyano-N-isoxazol-3-ylbenzenesulfonamide]	4.27 µM
N#Cc1cc(S(=O)(=O)Nc2ccccc2C(F)(F)F)ccc1Oc1ccccc1-c1ccccc1 [Example 111, 4-(biphenyl-2-yloxy)-3-cyano-N-[2-(trifluoromethyl)phenyl]benzenesulfonamide]	>3 µM
Cc1snnc1NS(=O)(=O)c1ccc(Oc2ccccc2-c2ccccc2)c(C#N)c1 [Example 112, 4-(biphenyl-2-yloxy)-3-cyano-N-(5-methyl-1,2,3-thiadiazol-4-yl)benzenesulfonamide]	33.7 µM
Cn1ccnc1NS(=O)(=O)c1ccc(Oc2ccccc2-c2ccccc2)c(C#N)c1 [Example 113, 4-(biphenyl-2-yloxy)-3-cyano-N-(1-methyl-1H-imidazol-2-yl)benzenesulfonamide]	12.9 µM
N#Cc1cc(S(=O)(=O)Nc2ccccc2)ccc1Oc1ccccc1-c1ccccc1 [Example 114, 4-(biphenyl-2-yloxy)-3-cyano-N-phenylbenzenesulfonamide]	>10 µM
N#Cc1cc(S(=O)(=O)Nc2cc(C(F)(F)F)ncn2)ccc1Oc1ccccc1-c1ccccc1 [Example 115, 4-(biphenyl-2-yloxy)-3-cyano-N-[6-(trifluoromethyl)pyrimidin-4-yl]benzenesulfonamide]	>10 µM
N#Cc1cc(S(=O)(=O)Nc2ccnc(C(F)(F)F)n2)ccc1Oc1ccccc1-c1ccccc1 [Example 116, 4-(biphenyl-2-yloxy)-3-cyano-N-[2-(trifluoromethyl)pyrimidin-4-yl]benzenesulfonamide]	3.11 µM
N#Cc1cc(S(=O)(=O)Nc2ncc[nH]2)ccc1Oc1ccccc1-c1ccccc1 [Example 117, 4-(biphenyl-2-yloxy)-3-cyano-N-1H-imidazol-2-ylbenzenesulfonamide]	19.2 µM
Cc1nn(C)c(C)c1Cc1ccc(Oc2ccc(S(=O)(=O)Nc3nccs3)cc2F)cc1 [Example 118, 3-fluoro-N-1,3-thiazol-2-yl-4-{4-[(1,3,5-trimethyl-1H-pyrazol-4-yl)methyl]phenoxy}benzenesulfonamide]	18.4 µM
O=S(=O)(Nc1nccs1)c1ccc(Oc2cccc(OCc3ccccc3)c2)c(F)c1 [Example 119, 4-[3-(benzyloxy)phenoxy]-3-fluoro-N-1,3-thiazol-2-ylbenzenesulfonamide]	17.7 µM
O=S(=O)(Nc1nccs1)c1ccc(Oc2ccc(OCc3ccccc3)c(F)c2)c(F)c1 [Example 120, 4-[4-(benzyloxy)-3-fluorophenoxy]-3-fluoro-N-1,3-thiazol-2-ylbenzenesulfonamide]	37.4 µM
O=S(=O)(Nc1nccs1)c1ccc(Oc2ccc(-c3cocn3)cc2)c(F)c1 [Example 121, 3-fluoro-4-[4-(1,3-oxazol-4-yl)phenoxy]-N-1,3-thiazol-2-ylbenzenesulfonamide]	32.3 µM
Cc1noc(C)c1Cc1ccc(Oc2ccc(S(=O)(=O)Nc3nccs3)cc2F)cc1 [Example 122, 4-{4-[(3,5-dimethylisoxazol-4-yl)methyl]phenoxy}-3-fluoro-N-1,3-thiazol-2-ylbenzenesulfonamide]	4.54 µM
Cc1cc(CN2CCCC2)cc(C)c1Oc1ccc(S(=O)(=O)Nc2nccs2)cc1F [Example 123, 4-[2,6-dimethyl-4-(pyrrolidin-1-ylmethyl)phenoxy]-3-fluoro-N-1,3-thiazol-2-ylbenzenesulfonamide]	9.2 µM
O=S(=O)(Nc1nccs1)c1ccc(Oc2ccc(Oc3ccc(F)cc3)cc2)c(F)c1 [Example 124, 3-fluoro-4-[4-(4-fluorophenoxy)phenoxy]-N-1,3-thiazol-2-ylbenzenesulfonamide]	15.1 µM
O=S(=O)(Nc1nccs1)c1ccc(Oc2ccc(CN3CCC3)c(F)c2)c(F)c1 [Example 125, 4-[4-(azetidin-1-ylmethyl)-3-fluorophenoxy]-3-fluoro-N-1,3-thiazol-2-ylbenzenesulfonamide]	23 µM
O=S(=O)(Nc1nccs1)c1ccc(Oc2cccc(Oc3ccccc3)c2)c(F)c1 [Example 126, 3-fluoro-4-(3-phenoxyphenoxy)-N-1,3-thiazol-2-ylbenzenesulfonamide]	11.5 µM
O=S(=O)(Nc1nccs1)c1ccc(Oc2ccc(Oc3ccccc3)cc2)c(F)c1 [Example 127, 3-fluoro-4-(4-phenoxyphenoxy)-N-1,3-thiazol-2-ylbenzenesulfonamide]	>10 µM
Cc1cc(-c2ccccc2Oc2ccc(S(=O)(=O)Nc3nccs3)cc2F)sn1 [Example 128, 3-fluoro-4-[2-(3-methylisothiazol-5-yl)phenoxy]-N-1,3-thiazol-2-ylbenzenesulfonamide]	3.11 µM
Cc1cnsc1-c1ccccc1Oc1ccc(S(=O)(=O)Nc2nccs2)cc1F [Example 129, 3-fluoro-4-[2-(4-methylisothiazol-5-yl)phenoxy]-N-1,3-thiazol-2-ylbenzenesulfonamide]	0.7 µM
